Measured values as given in article PMC5856786, “A DHODH inhibitor increases p53 synthesis and enhances tumor cell killing by p53 degradation blockage” (Nature Communications, 2018).

Tests used:
HNDF cells [1] = test: MTT growth/viability assay, HNDF; type: cell-based, human; conditions: 72 h
Description: MTT assays were performed in 96 well plates. After treatments, medium was replaced with 200 μL of MTT solution (3 mg mL^−1 MTT (Sigma #M2128) in PBS diluted 1:5 in growth medium). […] Volume of 200 μL DMSO per well were added and plates were read at 570 nm.

[2] = tested on: P-chk1 (Ser 345)/chk1 in ARN8 cells; test: P-chk1/chk1 ratio by western blotting, ARN8; type: cell-based, human; conditions: first blot (taken as ARN8)
Source text: (Ser 345) and chk1 were detected. Ponceau S staining was used to monitor loading. […]

lipid kinases = test: ADP-Glo kinase assays, panel of 16 lipid kinases (Supplementary Table 3); type: biochemical
Source text: Supplementary Table 3. In vitro inhibition (% remaining activity) of lipid […]
kinases using ADP-Glo™ kinase assays (Promega) according to manufacturer ’s instructions (International Centre for Kinase Profiling, Dundee, UK).
(1 picture or pasted object on this page, not shown here)

HNDF cells [3] = test: PI flow cytometry, sub-G1 cells, HNDF; type: cell-based, human
Description: Cell cycle distribution analysis was performed on a Becton Dickinson FACScan flow cytometer or FACSCalibur (BD Biosciences) following staining with propidium iodide (PI) or dual labeling with BrdU and PI[36]. These assays were analyzed using CellQuest Pro (BD Biosciences).

[4] = tested on: p53 levels in S-phase U2OS cells; test: p53-FITC/DNA content flow cytometry; type: cell-based; conditions: HZ05 1 μM, 72 h
Description: The upper left panel is a representative dot plot showing the gating strategy for cells expressing high p53 levels (blue: […] DMSO treated). […] A representative histogram of the fluorescence intensity of FITC-p53 in S-phase cells is shown in the lower right panel. Bar graphs show the average of three independent experiments. […] After an additional 48 h, Annexin V and PI staining was analyzed by flow cytometry. […] Inhibition of p53 degradation in the form of an mdm2 antagonist leads to death of cells in S-phase For the detection of p53, cells were treated as indicated and fixed using Fix/Perm buffer solution (eBiosciences). […] Cells were resuspended in FACS buffer (2 mM EDTA, 0.5% BSA) containing 2 μg mL^−1 FxCycle Violet (Thermo Scientific). Stained cells were acquired on LSRII (BD Biosciences) and analyzed using FlowJo software V10.2.

ARN8 xenograft = test: ARN8 subcutaneous xenograft; type: in vivo; conditions: ARN8 xenograft
In short: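 NSG mice (n = 8 per group) received 2 × 10^6 ARN8 cells subcutaneously in the flank in PBS:Matrigel (3:1). Treatment with (R)-HZ05 combined with nutlin-3a, at a previously determined maximum tolerated dose, started at ~50 mm^3 tumors. Volumes were caliper-measured every second day as π(length × width × height)/6.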

[5] = In vivo pharmacokinetic parameters of (R)-HZ05; parameters: species or system C57B1/6N mice; conditions: female, C57B1/6N, mouse, plasma, sc, 50 mg kg-1; following subcutaneous administration (Supplementary Fig. 7b); read-out: half-life (converted)
Description: Waters Acquity UPLC (Waters Corp.) was used for all LC/MS and LC/MS/MS experiments. For chromatographic separation a general gradient was used (5 % mobile phase B to 90 % over 2 min total run) on a C18 BEH 1.7 µm column 2 × 50 mm (Waters Corp.). Mobile phase A consisted of 5 % acetonitrile 0.1 % formic acid and mobile phase B 100 % acetonitrile 0.1 % formic acid. The flow rate was 0.5 mL min-1 and 3 µL of the sample was injected. A standard curve between 3−1000 nM was prepared for each compound. […]
In vivo Pharmacokinetic Parameter Determination
(R)-HZ05 was formulated for subcutaneous and oral administration at 5 mg mL-1 in 20 % hydroxypropyl-β-cyclodextrin in PBS and formulated at 5 mg mL-1 diluted in physiological NaCl. […]
Blood was collected […]
in EDTA tubes from three mice per time point and stored on ice with plasma separated within 30 min by centrifugation at 2000 g and stored at –80 ° C until analysis at 0.08, 0.25, 0.5, 1, 2, 3, 4, 6 and 24 h post administration. […] internal standard (9 nM warfarin) was added to each plasma sample and each sample was shaken at RT for 10 min followed by centrifugation at 2000 g for 30 min at 4 °C. […] of sample was injected into an Acquity UPLC coupled to a triple quadrupole mass spectrometer (Waters) operated in MRM mode with positive electrospray ionization. MRM transition 381.09 > […]
CV and 40 V for CE) as a qualifier ion. Transition for internal standard was 309.16 > 163.005 (22 V for CV and 14 V for CE). Ion source conditions were: capillary voltage, 2000 V; desolvation temperature, 500 °C; desol vation gas flow rate, 1000 L h-1. Separation was conducted using a BEH C18 column (2.1 × 50 mm, 1.7 µm, Waters) using a linear gradient: 0 – 0.5 min, 5 % B; […], 100 % B, 1.61–2.00 min, 5 % B. Mobile phase A was 5 % acetonitrile with 0.1 % formic acid and B […]
All animal experimentation was carried out by Sweden
Contract In vivo Design AB in compliance with 2010/63/EU directive and approved by Stockholms Norra Djurförsöksetiska Nämnd (laboratory animal eth ical committee Stockholm) with the approval number N61/15. Any single plasma concentration value deviated by >10 times from the other two values was excluded from the pharmacokinetic evaluation, but was included in the figure. […]

inhibition of lipid kinases (lipid kinases)	half-life [5] [h]	Compound	inhibitory effect on proliferation, HNDF versus ARN8 (HNDF cells [1])	P-chk1/chk1 ([2]; HZ00 10 µM, 24 h)	P-chk1/chk1 ([2]; HZ00 10 µM, 48 h)	P-chk1/chk1 ([2]; HZ00 10 µM, 72 h)	P-chk1/chk1 ([2]; HZ00 20 µM, 24 h)	P-chk1/chk1 ([2]; HZ00 20 µM, 48 h)	P-chk1/chk1 ([2]; HZ00 20 µM, 72 h)	sub-G1 cells (HNDF cells [3]; HZ05 1 μM 72 h + 48 h, 2 μM nutlin-3a last 48 h) [%]	sub-G1 cells (HNDF cells [3]; HZ05 1 μM 72 h + 48 h, DMSO last 48 h) [%]	sub-G1 cells (HNDF cells [3]; HZ05 1 μM, 72 h treatment) [%]	sub-G1 cells (HNDF cells [3]; HZ05 2.5 μM, 72 h treatment) [%]	p53 levels in S-phase cells [4]	xenograft tumor growth, combination with nutlin-3a (ARN8 xenograft; (R)-HZ05 75 mg/kg q.d. s.c. + nutlin-3a 50 mg/kg b.i.d. orally, 10 days)	xenograft tumor growth, single agent (ARN8 xenograft; (R)-HZ05 75 mg/kg q.d. s.c. or nutlin-3a 50 mg/kg b.i.d. orally)
did not detect inhibition		O=C(NC1CCCc2c1cnn2-c1ccccc1F)c1ccccn1 (stereo not shown) [HZ00]	lesser inhibitory effect on proliferation of HNDFs than on the growth of ARN8 cells	1.02	1.28	0.78	0.94	1.41	0.87							
	2.5	O=C(NC1CCCc2c1cnn2-c1ccccc1F)c1onc2c1CCCC2 (stereo not shown) [HZ05]								1.9	2.2	1.9	2.9	higher levels of p53 than vehicle treated controls	statistically significant reduction in xenograft growth	ineffective
